This note sets out measurements from ChEMBL document CHEMBL4725408, “Antibacterial Spiropyrimidinetriones with N-Linked Azole Substituents on a Benzisoxazole Scaffold Targeting DNA Gyrase” (J Med Chem, 2020).

The nature of data set [1]: n-octanol/phosphate buffer partition coefficient, log D of the compound at pH 7.4 measured after 1 hr by UV-LC/MS based shake flask method. The class given is physicochemical.
A short description of data set [2]: Inhibition of recombinant Escherichia coli DNA gyrase AB expressed in Escherichia coli BL21 (DE3) using relaxed pJT519 DNA as substrate preincubated for 20 mins followed by 5'-BODIPY-TMR-TTCTTCTTCT addition and measured after 1 hr by fluorescence anisotropy.
Data set [3] can be described thus: Protein binding in mouse plasma assessed as unbound fraction at 10 uM measured after 16 hrs by LC-MS/MS based equilibrium dialysis method. The class given is ADME, cell-free. A general note: Equilibrium dialysis compares concentrations on both sides of a semipermeable membrane.
A short description of data set [4]: Oral bioavailability in CD-1 mouse at 10 mg/kg by LC-MS/MS analysis. The class given is ADME, organism-based. As to conditions: in vivo.
The nature of data set [5]: Volume of distribution at steady state in Wistar Han rat at 3 mg/kg, iv administered as 15 mins infusion by LC-MS/MS analysis. The class given is ADME, organism-based. As to conditions: in vivo, read-out: Vdss.
Data set [6] concerns Staphylococcus aureus. In words: Antibacterial activity against methicillin/quinolone-resistant Staphylococcus aureus ARC517 by broth microdilution method. The class given is functional. In general terms: In broth dilution the organism is exposed to a series of concentrations in liquid medium.
The nature of data set [7]: Protein binding in rat plasma assessed as unbound fraction at 10 uM measured after 16 hrs by LC-MS/MS based equilibrium dialysis method. The class given is ADME, cell-free.
Data set [8] is described as follows: Ratio of MIC for antibacterial activity against methicillin/quinolone-resistant Staphylococcus aureus ARC517 to protein binding in human plasma assessed as unbound fraction.
Data set [9] deals with Staphylococcus aureus. The data set is described as follows: Antibacterial activity against methicillin sensitive Staphylococcus aureus ARC516 infected in CD-1 mouse neutropenic thigh infection model assessed as log reduction in colony forming unit at 50 to 75 mg/kg, ip measured after 24 hrs relative to initial treatment control. Format: functional. The conditions noted are these: dose mg/kg 50-75.

The nature of data set [10]: Oral bioavailability in Wistar Han rat at 10 mg/kg by LC-MS/MS analysis. As to conditions: in vivo. Format: ADME, organism-based.
In data set [11] the test system is Staphylococcus aureus. In words: Antibacterial activity against methicillin sensitive Staphylococcus aureus ARC516 by broth microdilution method. The class given is functional.
A short description of data set [12]: Plasma clearance in CD-1 mouse at 3 mg/kg, iv administered as 15 mins infusion by LC-MS/MS analysis. Format: ADME, organism-based. The conditions noted are these: in vivo, 0.25 h.
Data set [13] concerns Staphylococcus aureus. The data set is described as follows: Antibacterial activity against methicillin sensitive Staphylococcus aureus ARC516 infected in CD-1 mouse neutropenic thigh infection model assessed as reduction in colony forming unit at 10 to 25 mg/kg, ip measured after 24 hrs. Format: functional, organism-based.
Data set [14] deals with Staphylococcus aureus. The data set is described as follows: Antibacterial activity against methicillin sensitive Staphylococcus aureus ARC516 infected in CD-1 mouse neutropenic thigh infection model assessed as log reduction in colony forming unit at 50 to 75 mg/kg, ip measured after 24 hrs relative to untreated control. The class given is functional. The conditions noted are these: dose mg/kg 50-75.

Data set [15] has as its system Staphylococcus aureus. The data set is described as follows: Antibacterial activity against methicillin sensitive Staphylococcus aureus ARC516 in presence of human serum by broth microdilution method. The class given is functional.
Data set [16] concerns Streptococcus pneumoniae. The data set is described as follows: Antibacterial activity against Streptococcus pneumoniae ARC548 by broth microdilution method. Format: functional.
The test system of data set [17] is Haemophilus influenzae. In words: Antibacterial activity against Haemophilus influenzae ARC737 by broth microdilution method. Format: functional.
For data set [18], the system named is Streptococcus pyogenes. In words: Antibacterial activity against Streptococcus pyogenes ARC838 by broth microdilution method. Format: functional.
In data set [19] the test system is L5178Y. The data set is described as follows: Genotoxicity in mouse L5178Y cells using DAPI staining by microscopy based micronucleation assay. The class given is toxicity, cell-based.
The nature of data set [20]: Protein binding in human plasma assessed as unbound fraction at 10 uM measured after 16 hrs by LC-MS/MS based equilibrium dialysis method. Format: ADME, cell-free.
The nature of data set [21]: Solubility of the compound by high throughput solubility assay. Format: physicochemical.
Data set [22] is described as follows: Half life in Wistar Han rat at 3 mg/kg, iv administered as 15 mins infusion by LC-MS/MS analysis. The class given is ADME, organism-based. The conditions noted are these: in vivo.
Data set [23] has as its system Escherichia coli. In words: Antibacterial activity against Escherichia coli ARC523 by broth microdilution method. Format: functional.
A short description of data set [24]: Unbound plasma clearance in CD-1 mouse at 3 mg/kg, iv administered as 15 mins infusion by LC-MS/MS analysis. Format: ADME, organism-based. As to conditions: in vivo, 0.25 h.
Data set [25] can be described thus: Volume of distribution at steady state in CD-1 mouse at 3 mg/kg, iv administered as 15 mins infusion by LC-MS/MS analysis. Format: ADME, organism-based. As to conditions: in vivo, read-out: Vdss.
Data set [26] relates to Staphylococcus aureus. In words: Antibacterial activity against methicillin sensitive Staphylococcus aureus ARC516 infected in CD-1 mouse neutropenic thigh infection model assessed as reduction in colony forming unit at 20 mg/kg, ip bid in presence of ABT. Format: functional, organism-based.
For data set [27], the system named is Staphylococcus aureus. In words: Antibacterial activity against methicillin sensitive Staphylococcus aureus ARC516 infected in CD-1 mouse neutropenic thigh infection model assessed as log reduction in colony forming unit at 100 mg/kg, ip bid in presence of ABT relative to initial treatment control. Format: functional.
Data set [28] in a line: Half life in CD-1 mouse at 3 mg/kg, iv administered as 15 mins infusion by LC-MS/MS analysis. The class given is ADME, organism-based. As to conditions: in vivo.

SMILES strings stand for the structures. pIC50: −log10 of the molar value. Values after ≈ are worked out from the molar mass of the structure shown. Active and inactive are the calls of the source.

In data set [1], `C[C@@H]1CN2c3c(cc4c(-n5cncn5)noc4c3F)CC3(C(=O)NC(=O)NC3=O)[C@H]2[C@H](C)O1` yielded a logD at 1 h of 1.7. The pIC50 in data set [2] is 6.66. The results for the fraction unbound at 16 h, 10 µM in [3], in [7] and in data set [20] were 0.12, 0.1 and 0.13, respectively. Moreover, the bioavailability in data set [4] was determined as 37%; in [10], 62%. Also, the Vd in data set [5] was found to be 1.9 L/kg. Further, the MIC was 0.2 µM (≈ 0.0911 µg/mL) in data set [6]; 0.049 µM (≈ 0.0223 µg/mL) in data set [11]; less than 0.2 µM in data set [15]; 0.39 µM (≈ 0.178 µg/mL) in data set [16]; 0.39 µM (≈ 0.178 µg/mL) in data set [17]; 0.39 µM (≈ 0.178 µg/mL) in [18]. The compound also had an MIC in data set [23] of 12.5 µM (≈ 5.69 µg/mL). Also, in data set [8], the Ratio was 1.4. In addition, the “log(activity)” value is recorded as more than 2 in [9] and 4 in data set [14]. In data set [12], this compound had a CL of 0.021 mL/min/kg. In data set [13], the result was Active. Also, the no observed adverse effect level (NOAEL) in [19] was less than 6 µM. The solubility in data set [21] is 250 µM (≈ 114 µg/mL). This compound showed a half-life in data set [22] of 145 min. In [24], this compound displayed a CL free of 0.175 mL/min/kg.
Regarding `C[C@@H]1CN2c3c(cc4c(N5C(=O)OC[C@@H]5C)noc4c3F)CC3(C(=O)NC(=O)NC3=O)[C@H]2[C@H](C)O1` [ZOLIFLODACIN], the Vd was 3 L/kg in data set [25] and 1.5 L/kg in [5]. The logD at 1 h in data set [1] amounted to 1.7. In addition, the pIC50 in data set [2] is 6.77. The fraction unbound at 16 h, 10 µM in data set [3] was 0.17; in data set [7], 0.13; in [20] it was 0.18. Further, the bioavailability in data set [4] was 43.5%; in data set [10] it was 31%. Moreover, the MIC in data set [6] stood at 0.78 µM (≈ 0.38 µg/mL); in data set [11], 0.2 µM (≈ 0.0975 µg/mL); in data set [15] it was 0.39 µM; in data set [23], 6.2 µM (≈ 3.02 µg/mL). The Ratio in data set [8] is recorded as 4.3. The CL in data set [12] amounted to 0.057 mL/min/kg. Besides, in [26], the outcome was Active. Moreover, the “log(activity)” value in data set [27] turned out to be 1.8. In data set [19], this compound registered an NOAEL of more than 400 µM. For the same compound, the half-life in [28] is 36.6 min; in [22] it was 47.4 min. In data set [24], this compound came in with a CL free of 0.335 mL/min/kg.

One may read the logD as the decadic logarithm of the distribution of all forms, ionised or not, between an organic phase and buffer at a given pH. A higher logD goes with a more lipophilic compound. In general, pIC50 refers to −log10 of the IC50, conventionally taken in molar units. As a reminder, the fraction unbound is free concentration divided by total concentration. What is called bioavailability is the share of a dose that reaches the circulation, judged against a reference dose that is usually intravenous. A lower bioavailability goes with poor availability. The NOAEL is the highest dose or exposure tested at which no adverse effect was seen. In general, solubility refers to the dissolved amount per volume that the medium holds. The term half-life denotes the time needed for the level to fall by half in the phase considered.
